Laboratory results reported in patent publication US8697747B2, “Enhancing coagulation or reducing fibrinolysis” (THe UAB Research Foundation, priority 2009, dated 2014).

What was measured:
[1] = system: rat plasma; assay: Thrombelastography in rat plasma with or without tPA; assay type: biochemical
Experimental: Two sets of two Sprague Dawley outbred male rats were anesthetized with ketamine and xylazine and had blood drawn via cardiac puncture, pooled in two batches, and anticoagulated 1:9 with 3.2% sodium citrate. Two male New Zealand White rabbits were sedated with acepromazine and had blood collected via central ear artery and similarly anticoagulated. Blood was centrifuged at 3000×g for 15 min, and the plasma stored in two batches until analyzed. The final volume for thrombelastographic plasma sample mixtures was 359.6 μL. Sample composition consisted of 316 μL of plasma; 10 μL of tissue factor reagent (0.1% final concentration in dH2O; Instrumentation Laboratory, Lexington, Mass.); 10 μL of dH2O or tissue-type plasminogen activator (tPA, 580 U/μg, Genentech, Inc., San Francisco, Calif.) for a final activity of 2000 U/mL for rat plasma or 300 IU/mL for rabbit plasma; 3.6 μL of dimethyl sulfoxide (DMSO) or DMSO with CORM-2 (100 μM final concentration; Sigma-Aldrich, St. Louis, Mo.); and 20 μL of 200 mM CaCl2. The tPA activity for each species was determined with pilot data to obtain reproducible lysis within 15 min. There was no appreciable lysis in rat plasma at 100, 300, or 1000 U/mL tPA. Plasma sample mixtures were placed in a disposable cup in a computer-controlled THROMBELASTOGRAPH® hemostasis system (Model 5000, Haemoscope Corp., Niles, Ill.), with addition of CaCl2 as the last step to initiate clotting. In experiments without tPA, data were collected until clot strength (maximum amplitude) was stable. In experiments with tPA, data derived from the second rabbit plasma samples were collected for 60 min whereas data obtained with the second rat plasma samples were collected for 15 min. Thrombelastographic variables were determined at 39° C. as previously described in Examples 1, 2, and 4. Data were statistically compared with unpaired Student's t-test.

[2] = pure (43.5 mg/mL) or up to three-fold diluted fibrinogen solution
Excerpt: Exposure of purified fibrinogen to CORM-2. Experiments with purified fibrinogen pre-exposure to CORM-2 were to be performed in a similar fashion as that described with prothrombin. […] Therefore, a concentration-response relationship between various fibrinogen concentrations with or without the addition of CORM-2 was generated as outlined subsequently.

[3] = system: factor IX deficient plasma; assay: Thrombelastography, factor IX deficient plasma; assay type: biochemical, human; conditions: 100 mmol CORM-2 vs control; FIX deficient plasma, 5 individuals
Experimental: Plasma deficient (<1% normal activity) in factor VIII (FVIII; 11 individuals), factor IX (FIX; 5 individuals), or factor VII (FVII; 4 individuals) was obtained from anonymous donors (George King Bio-Medical, Overland Park, Kans.) and was anticoagulated with sodium citrate. The final volume for all subsequently described plasma sample mixtures was […]. Sample composition consisted of […] of plasma, […] of tissue factor (0.1% final concentration in 0.9% NaCl; Diagnostica Stago, Asnieres, France), 3.6 mL of dimethyl sulfoxide (DMSO) or DMSO with CORM-2 ([…]; Sigma-Aldrich, St. Louis, Mo.), and 20 mL of […] CaCl2. […] (Motterlini et al. 2005). While CORM-2 decays slowly in DMSO, DMSO was added to the dry compound just prior to placement into the plasma mixture.
Plasma sample mixtures were placed in a disposable cup in a computer-controlled THROMBELASTOGRAPH® hemostasis system (Model 5000; Haemoscope Corp., Niles, Ill.), with addition of CaCl2 as the last step to initiate clotting. Data were collected until clot strength stabilized (maximum amplitude).
Statistical analyses. […] A paired student's t-test was used to analyze the effects of CORM-2 exposure in FVIII deficient individuals. The results of the FIX and FVII deficient groups were presented but not statistically analyzed secondary to the small number of individuals in each cohort. […] Statistical analyses and graphical representation of the data were generated with commercially available software (SigmaPlot 11.0; Systat Software Inc., San Jose, Calif.; CorelDRAW 12.0; Corel Corp., Ottawa, Ontario, Canada). A P value of less than 0.05 was considered significant.

[4] = 2000 U/ml tPA, 100 μM CORM-2, mean ± SD, n=4
[5] = 2000 U/ml tPA, 100 μM vs 0 μM CORM-2
[6] = no tPA, 100 μM CORM-2, mean ± SD, n=4

Structure (SMILES): [C-]#[O+].[C-]#[O+].[C-]#[O+].[C-]#[O+].[C-]#[O+].[C-]#[O+].[Cl][Ru][Cl].[Cl][Ru][Cl] [CORM-2, tricarbonyldichlororuthenium (II) dimer]
- ACL (area under the curve of lysis) [1, 4]: 0 ± 0 −dynes/cm^2
- MRL (maximum rate of lysis) [1, 4]: 0.0 ± 0.0 −dynes/cm^2/sec
- MRTG (maximum rate of thrombus generation) [1, 4]: 14.7 ± 0.6 dynes/cm^2/sec
- TMRTG (time to maximum rate of thrombus generation) [1, 4]: 1.5 ± 0.1 min
- TTG (total thrombus generation) [1, 4]: 230 ± 6 dynes/cm^2
- TMRL (time to maximum rate of lysis) ([1]; 2000 U/ml tPA, 100 μM CORM-2, n=4): No Lysis
- Percent Change of ACL [1, 5]: −100%
- Percent Change of MRL [1, 5]: −100%
- Percent Change of MRTG [1, 5]: 29%
- Percent Change of TMRTG [1, 5]: 0%
- Percent Change of TTG [1, 5]: 23%
- MRTG (maximum rate of thrombus generation) [1, 6]: 14.7 ± 0.6 dynes/cm^2/sec
- TMRTG (time to maximum rate of thrombus generation) [1, 6]: 1.5 ± 0.1 min
- TTG (total thrombus generation) [1, 6]: 230 ± 6 dynes/cm^2
- Percent Change of MRTG ([1]; no tPA, 100 μM vs 0 μM CORM-2): 29%
- Percent Change of TMRTG ([1]; no tPA, 100 μM vs 0 μM CORM-2): 0%
- Percent Change of TTG ([1]; no tPA, 100 μM vs 0 μM CORM-2): 23%
- solubility of CORM-2 in DMSO added to purified fibrinogen solution [2]: not soluble
- effect on MRTG (speed of clot formation) [3]: four of five individuals had an increase in the speed of clot formation
- effect on TMRTG [3]: decreased the TMRTG value of all five individual plasma samples tested
- effect on TTG [3]: All individual plasma samples demonstrated an increase in TTG
